Experimental data taken from patent publication US20160136127A1, “USE OF TETRAHYDROCANNABINOL AND/OR CANNABIDIOL FOR INCREASING RADIOSENSITVITY IN THE TREATMENT OF A BRAIN TUMOUR” (GW PHARMA LIMITED, priority 2013, published 2016).

Assays:
[1] = system: glioma cell lines T98G, U87MG and GL261; assay: Clonogenic cell survival assay after irradiation (radiosensitivity of glioma cell lines); type: cell-based, human (T98G, U87MG); mouse (GL261); settings: pure phytocannabinoid used alone, increasing concentrations, 24 h prior to irradiation (0, 1, 2 and 5 Gy, Cs137); FIG. 2 / FIG. 3
Method: The human glioma cell lines T98G and U87MG were obtained from ATCC, and were lines derived from patients with a glioblastoma multiforme tumour and a glioblastoma astrocytoma respectively.
The mouse glioma cell line GL261, which is syngeneic to the C57BL/6 mouse was acquired from the NCI.
Cells were exposed to increasing doses of irradiation and then clonogenic cell survival assays were performed. The ability of the cells to survive an irradiation insult and go on and divide indefinitely forming a colony was assessed in this manner and used as our read-out of radiosensitivity.
(§1) Cells were initially seeded into flasks and left to adhere overnight. […] Cells were then harvested, counted and seeded again at increasing densities in 6-well plates, adjusting the density appropriately for the radiation dose, and then incubated for approximately 14 days. […] Colonies consisting of >50 cells were counted and calculated as a proportion of the number of cells initially seeded (surviving fraction). […]
as §1, with “surviving fraction was calculated.” for “calculated as a proportion of the number of cells initially seeded (surviving fraction).”

[2] = system: U87 and U373 human glioma cell lines; settings: cited from earlier work
[3] = system: U87 human glioma cells subcutaneously implanted to nude mice; settings: cited from earlier work

Structure (SMILES) | effect on radiosensitivity (surviving fraction) [1] | anti-proliferative effects in-vitro [2] | anti-proliferative effects in-vivo [3]
CCCCCc1cc(O)c2c(c1)OC(C)(C)[C@@H]1CCC(C)=C[C@@H]21 [THC, Tetrahydrocannabinol] | did not appear to alter the radiosensitivity |  | 
C=C(C)[C@@H]1CCC(C)=C[C@H]1c1c(O)cc(CCCCC)cc1O [CBD, Cannabidiol] | did not appear to alter the radiosensitivity | anti-proliferative effects | anti-proliferative effects
